The values that follow are results of earlier work, collected in patent US20150150473A1, “Drug-Enhanced Neurofeedback” (McLean Hospital Corporation, priority 2008, published 2015).

The conditions of this data set: in vivo.

As for `N[C@@H]1CON=C1O` [DCS, d-cycloserine], the half-life result is “approximately 10 hours”.
